# Assays:
# [1] = tested on: 5-HT uptake; experiment: Test 173: potentiation of 5-HTP (5-hydroxytryptophane) induced hypermotility in mice (inhibition of 5HT uptake, or 5HT potentiation, test); assay type: in vivo, mice (female, NMRI strain); settings: for ED50: Mus musculus, sc, read-out: Test 173 (dose increasing the activity to double the activity found with controls receiving 5-HTP alone; ED50), s.c., 5-HTP 150 mg/kg i.p., motility 45-75 min after 5-HTP, water-soluble salt; for FG 8033 is better by: 5-HT Potentiation % / FG 8033 is better by: 5-HT Potentiation Factor: FG 8033 compared with the listed compound, mice s.c.
# Excerpt: I. POTENTIATION OF 5-HTP (5-HYDROXYTRYPTOPHANE) INDUCED HYPERMOTILITY IN MICE
# This behavior is characterized by continuous jerky locomotion, head movements from side to side, abduction of the hind limbs, tremor, and lordosis.
# Measurement of the motility after administration of test drugs to 5-HTP-pretreated mice is therefore used as a test for 5-HT-potentiation, which most probably proceeds through an inhibition of 5-HT uptake.
# Female mice of the NMRI strain weighing 20-22 g are used. The controls receive 5-HTP 150 mg/kg (15 ml/kg) i.p. (i.p.=intraperitoneally) and thirty (30) minutes later physiological saline (20 ml/kg) s.c. (s.c.=subcutaneously). The motility is measured by an Animex™ motimeter 45-75 minutes after 5-HTP administration. The test animals received test substance s.c. (20 ml/kg) instead of physiological saline. Five groups of two (2) mice are used for control and per dose of each test drug. the test substance is dosed according to the dose scale 1, 1.6, 2.5, 4, 6.3, and 10 mg/kg etc.
# The activity of the test animals is compared to the activity of controls. The best straight line is fitted through the points in a coordinate system (abscissa log dose, ordinate log activity). […] The activity of controls is investigated in thirty (30) groups of two (2) mice.
# [2] = tested on: mice; experiment: in vivo; settings: for FG 8033 is better by: T.I. % / FG 8033 is better by: T.I. Factor: FG 8033 compared with the listed compound, mice s.c.
# Method: (§1) (J. Buus Lassen, European Journal of Pharmacology 47, 351-358 (1978)). See also Squires in Acta Pharmacol. et Toxicol, 1972, 31 Suppl. 1,35 for a description of a further procedure for measurement of the same 5-HT uptake-inhibitory phenomenon.
# (§2) II. ACUTE TOXICITY IN MICE
# (§3) A variation of the procedure of J. Buus Lassen, et al. in European Journal of Pharmacology 32, 108-115 (1975) is employed. The test drug is administered s.c. in increasing doses to mice, four (4) animals at each dose level.
# (§4) Results are expressed as LD50 = . . . mg/kg s.c.
# [3] = in vivo; settings: mouse, in vivo, sc
# Method: as §1, §2, §3, §4
# [4] = versus (+) trans isomer FG 8032
# [5] = versus (+), trans des-p-fluoro compound FG 4963
# [6] = versus (-), trans des-p-fluoro compound FG 4962
Structure (SMILES),ED50 ([1]; mice) [mg/kg],FG 8033 is better by: 5-HT Potentiation % [1] [%],FG 8033 is better by: 5-HT Potentiation Factor [1],FG 8033 is better by: T.I. % [2] [%],FG 8033 is better by: T.I. Factor [2],further results
"COc1ccc(OC[C@H]2CN(C)CC[C@@H]2c2ccccc2)cc1 (single isomer, unassigned) [FG 4963, reference compound]",2.8,–,–,–,–,–
"COc1ccc(OC[C@H]2CNCC[C@@H]2c2ccccc2)cc1 (single isomer, unassigned) [FG 4996, reference compound]",9,1800,18,5714,57.14,–
"COc1ccc(OC[C@@H]2CN(C)CC[C@H]2c2ccccc2)cc1 (relative stereo) [FG 4932, reference compound]",7.7,–,–,–,–,–
"CN1CC[C@@H](c2ccc(F)cc2)[C@H](COc2ccc3c(c2)OCO3)C1 (single isomer, unassigned) [FG 7043, reference compound]",4,–,–,–,–,–
"COc1ccc(OC[C@@H]2CN(C)CC[C@H]2c2ccc(F)cc2)cc1 (single isomer, unassigned) [FG 8033, (-)-trans-4-(4-fluorophenyl)-3-[(4-methoxyphenoxy)-methyl]-1-methyl-piperidine]",0.5,–,–,–,–,"degree of activity in test for potentiation of 5-hydroxytryptophane-induced hypermotility (in words) ([1]; mice): remarkably and unpredictably superior in its 5-HT potentiation to the most structurally closely-related compounds evaluated; 5-HT potentiation activity relative to FG 8032 [1, 4]: 46 times; 5-HT potentiation activity relative to FG 8032, percent [1, 4]: 4600%; superiority as to 5-HT potentiation over FG 4963, factor [1, 5]: 5.6; superiority as to 5-HT potentiation over FG 4963, percent [1, 5]: 560%; 5-HT potentiation activity relative to FG 4962 [1, 6]: 7.6 times; 5-HT potentiation activity relative to FG 4962, percent [1, 6]: 760%; Therapeutic Index (in words) ([2]; calculated as LD50/ED50): even more remarkably and unpredictably superior to those most structurally closely-related compounds when considering its Therapeutic Index; Therapeutic Index relative to FG 8032 [2, 4]: more than 47 times; Therapeutic Index relative to FG 8032, percent [2, 4]: > 4700%; superiority as to Therapeutic Index over FG 4963, factor [2, 5]: greater than 5.97 times; superiority as to Therapeutic Index over FG 4963, percent [2, 5]: > 597%; Therapeutic Index relative to FG 4962 [2, 6]: more than 15 times; Therapeutic Index relative to FG 4962, percent [2, 6]: > 1500%"
"CC(=O)O.COc1ccc(OC[C@@H]2CNCC[C@H]2c2ccc(F)cc2)cc1 (single isomer, unassigned) [FG 8035, (+)-trans-4-(4-fluorophenyl)-3-((4-methoxyphenoxy)methyl)-piperidine acetate]",22,4400,44,3333,33.33,–
COc1ccc(OC[C@@H]2CN(C)CC[C@H]2c2ccc(F)cc2)cc1 (relative stereo) [FG 98-I],1.3,260,2.6,174,1.74,–
"COc1ccc(OC[C@@H]2CNCC[C@H]2c2ccc(F)cc2)cc1 (single isomer, unassigned) [FG 7080, (-)-trans-4-(4-fluorophenyl)-3-[(4-methoxyphenoxy)-methyl]-piperidine]",1,–,–,–,–,–
"COc1ccc(OC[C@@H]2CN(C)CC[C@H]2c2ccc(F)cc2)cc1.Cl (single isomer, unassigned) [FG 8032, (+)-trans-4-(4-fluorophenyl)-3-[(4-methoxyphenoxy)methyl]-1-methylpiperidine hydrochloride]",23,–,–,–,–,–
"COc1ccc(OC[C@@H]2CNCC[C@H]2c2ccccc2)cc1 (single isomer, unassigned) [FG 7006, reference compound]",20,4000,40,4444,44.44,"selectivity ratio [3]: 18; Test 001 acute toxicity LD50 ([2]; mice, s.c., lethality at 24 hours, water-soluble salt): 350 mg/kg"
"COc1ccc(OC[C@@H]2CN(C)CC[C@H]2c2ccccc2)cc1 (single isomer, unassigned) [FG 4962, reference compound]",3.8,–,–,–,–,–
